Reference: ChEMBL document CHEMBL1201862, “PubChem BioAssay data set” (2004)
The source made the active and inactive calls.

Tests used:
[1] = target: Transitional endoplasmic reticulum ATPase (Homo sapiens, UniProt P55072, C522A); experiment: C522A mutant p97 ATPase inhibitors, dose response, counter-screen for p97 inhibitor project, biochemical, luminescence (AID 1544)
[2] = target: Transitional endoplasmic reticulum ATPase (Homo sapiens, UniProt P55072); experiment: p97 ATPase inhibitors, dose response, biochemical (AID 1534)
[3] = target: Melanin-concentrating hormone receptor 1 (Homo sapiens, UniProt Q99705); experiment: Fluorescence-based counterscreen for antagonists of the G-protein coupled receptor 7 (GPR7): cell-based high throughput dose response assay to identify antagonists of the melanin-concentrating hormone receptor 1 (MCHR1).; format: functional
Cytochrome P450 2D6 = Cytochrome P450 2D6 (Homo sapiens, UniProt P10635);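 note: CYP2D6 member of a cytochrome P450 panel assay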
[4] = A Cell Based Secondary Assay To Explore Cytotoxicity of Compounds that Sensitize Mycobacterium Tuberculosis to Beta-Lactam Antibiotics.; format: functional
[5] = target: T1, Tyrosine-protein phosphatase non-receptor type 7 (Homo sapiens, UniProt P35236); format: functional
T1 sequence (P35236 whole entry): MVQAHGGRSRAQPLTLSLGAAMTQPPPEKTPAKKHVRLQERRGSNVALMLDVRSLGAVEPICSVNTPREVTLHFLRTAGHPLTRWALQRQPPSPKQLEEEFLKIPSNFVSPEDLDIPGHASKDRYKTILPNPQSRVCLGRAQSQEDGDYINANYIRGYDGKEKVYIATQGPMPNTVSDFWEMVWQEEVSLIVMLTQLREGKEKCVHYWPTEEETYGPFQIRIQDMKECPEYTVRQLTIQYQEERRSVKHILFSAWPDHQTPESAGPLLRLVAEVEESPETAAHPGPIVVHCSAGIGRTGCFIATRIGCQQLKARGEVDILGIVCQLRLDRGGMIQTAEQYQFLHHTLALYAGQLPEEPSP

[6] = target: Glyceraldehyde-3-phosphate dehydrogenase (Homo sapiens, UniProt P04406)
[7] = target: Heat shock cognate 71 kDa protein (Homo sapiens, UniProt P11142); experiment: In Vitro Hsc70 Dose Response Fluorescence Polarization Assay. [Related pubchem assays: 1072 ]
[8] = target: Heat shock 70 kDa protein 1A (Homo sapiens, UniProt P0DMV8); experiment: Hsp70 inhibitors, SAR follow-up, biochemical, fluorescence polarization (AID 1072)
[9] = target: T2, Dual specificity protein phosphatase 6 (Rattus norvegicus, UniProt Q64346)
T2 sequence (Q64346 whole entry): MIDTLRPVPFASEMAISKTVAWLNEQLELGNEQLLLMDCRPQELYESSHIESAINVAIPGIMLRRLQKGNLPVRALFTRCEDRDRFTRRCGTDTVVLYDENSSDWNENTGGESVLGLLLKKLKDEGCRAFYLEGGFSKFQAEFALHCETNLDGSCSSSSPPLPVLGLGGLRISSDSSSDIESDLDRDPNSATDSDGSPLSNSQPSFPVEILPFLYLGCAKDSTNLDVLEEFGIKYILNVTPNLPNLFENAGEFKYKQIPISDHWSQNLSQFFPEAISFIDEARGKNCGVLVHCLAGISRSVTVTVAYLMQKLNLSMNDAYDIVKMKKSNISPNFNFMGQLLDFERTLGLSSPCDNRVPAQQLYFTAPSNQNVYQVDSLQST

[10] = target: T2, Dual specificity protein phosphatase 6; format: functional
Staphylococcus aureus = experiment: Inhibitors of Bacterial Quorum Sensing Structure Activity Relationship (SAR) Analysis: Dose Response Assay. [Related pubchem assays: 700, 527 ]; format: functional, organism-based
[11] = Counterscreen for IDE inhibitors: Luminescence-based cell-based high throughput dose response assay to identify compounds that are cytotoxic to HEK cells. [Related pubchem assays: 434962 (Primary screen (IDE inhibitors in singlicate)), 449730 (Counterscreen (Cytotoxicity in triplicate)), 435028 (Confirmation (IDE inhibitors in triplicate)) …; format: functional; conditions: HEK293
Insulin-degrading enzyme = target: T3, Insulin-degrading enzyme (Homo sapiens, UniProt P14735); experiment: Dose Response: Fluorescence polarization-based cell-based high throughput dose response assay for inhibitors of insulin-degrading enzyme (IDE). [Related pubchem assays: 434962 (Primary screen (IDE inhibitors in singlicate)), 449730 (Counterscreen (Cytotoxicity in triplicate)), 435028 (Confirmation (IDE inhibitors in triplicate)), 434984 (Summary …; format: functional
T3 sequence (P14735 whole entry): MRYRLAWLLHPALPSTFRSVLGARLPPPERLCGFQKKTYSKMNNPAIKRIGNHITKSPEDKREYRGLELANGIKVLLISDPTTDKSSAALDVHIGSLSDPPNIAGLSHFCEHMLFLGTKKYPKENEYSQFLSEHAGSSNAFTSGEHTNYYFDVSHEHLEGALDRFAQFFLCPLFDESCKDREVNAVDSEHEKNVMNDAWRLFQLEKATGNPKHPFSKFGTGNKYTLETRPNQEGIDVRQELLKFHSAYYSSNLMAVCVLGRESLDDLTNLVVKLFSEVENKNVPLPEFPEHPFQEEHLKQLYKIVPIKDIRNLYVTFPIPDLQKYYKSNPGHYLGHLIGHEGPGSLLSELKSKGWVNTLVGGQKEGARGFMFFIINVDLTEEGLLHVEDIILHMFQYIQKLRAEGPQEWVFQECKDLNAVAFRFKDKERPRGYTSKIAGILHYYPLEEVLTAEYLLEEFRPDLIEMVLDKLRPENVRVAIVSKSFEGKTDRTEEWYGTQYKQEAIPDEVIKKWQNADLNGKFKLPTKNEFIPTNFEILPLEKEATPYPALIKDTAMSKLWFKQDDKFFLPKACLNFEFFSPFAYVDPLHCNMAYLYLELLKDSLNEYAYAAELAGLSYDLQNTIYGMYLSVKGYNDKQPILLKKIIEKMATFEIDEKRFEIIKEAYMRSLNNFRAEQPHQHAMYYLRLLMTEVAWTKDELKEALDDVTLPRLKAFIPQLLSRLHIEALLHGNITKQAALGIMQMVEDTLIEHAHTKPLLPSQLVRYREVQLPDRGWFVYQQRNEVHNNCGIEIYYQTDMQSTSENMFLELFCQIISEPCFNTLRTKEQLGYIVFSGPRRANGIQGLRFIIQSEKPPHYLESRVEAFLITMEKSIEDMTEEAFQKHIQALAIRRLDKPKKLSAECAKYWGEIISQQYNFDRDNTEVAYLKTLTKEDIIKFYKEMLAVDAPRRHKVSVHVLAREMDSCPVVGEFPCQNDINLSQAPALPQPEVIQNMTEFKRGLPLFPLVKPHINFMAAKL

[12] = enhancers of respiration in Yfh1-depleted yeast, dose response, Friedreich's ataxia, plus single-dose screen (AID 1465); format: functional;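 note: yeast depleted of Yfh1p frataxin homolog grown on glycerol needing respiration; WST-1 tetrazolium dye reduction as measure of cellular dehydrogenase metabolic activity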
Protein skinhead-1 = target: T4, Protein skinhead-1 (Caenorhabditis elegans, UniProt P34707); format: functional
T4 sequence (P34707 whole entry): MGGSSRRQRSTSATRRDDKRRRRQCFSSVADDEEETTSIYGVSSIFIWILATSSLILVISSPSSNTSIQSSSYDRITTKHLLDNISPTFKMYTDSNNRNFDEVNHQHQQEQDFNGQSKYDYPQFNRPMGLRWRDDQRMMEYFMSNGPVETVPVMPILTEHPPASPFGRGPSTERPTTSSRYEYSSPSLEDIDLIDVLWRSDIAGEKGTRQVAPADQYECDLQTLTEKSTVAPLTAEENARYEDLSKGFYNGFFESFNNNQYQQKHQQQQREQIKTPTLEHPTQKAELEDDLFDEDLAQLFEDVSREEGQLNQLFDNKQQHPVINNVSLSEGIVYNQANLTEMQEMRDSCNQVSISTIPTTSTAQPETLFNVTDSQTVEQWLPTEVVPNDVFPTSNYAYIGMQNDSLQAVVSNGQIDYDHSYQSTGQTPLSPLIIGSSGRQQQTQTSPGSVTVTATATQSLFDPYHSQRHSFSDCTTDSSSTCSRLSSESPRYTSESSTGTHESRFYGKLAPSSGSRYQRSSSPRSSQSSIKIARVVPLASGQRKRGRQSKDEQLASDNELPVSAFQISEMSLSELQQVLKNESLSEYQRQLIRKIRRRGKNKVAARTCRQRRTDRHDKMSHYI

[13] = target: T5, Rac GTPase-activating protein 1 (Homo sapiens, UniProt Q9H0H5); experiment: MgcRacGAP GTPase-activating activity inhibitors, confirmation, biochemical, ADP Hunter fluorescence, primary and confirmatory (AID 624330); format: functional
T5 sequence (Q9H0H5 whole entry): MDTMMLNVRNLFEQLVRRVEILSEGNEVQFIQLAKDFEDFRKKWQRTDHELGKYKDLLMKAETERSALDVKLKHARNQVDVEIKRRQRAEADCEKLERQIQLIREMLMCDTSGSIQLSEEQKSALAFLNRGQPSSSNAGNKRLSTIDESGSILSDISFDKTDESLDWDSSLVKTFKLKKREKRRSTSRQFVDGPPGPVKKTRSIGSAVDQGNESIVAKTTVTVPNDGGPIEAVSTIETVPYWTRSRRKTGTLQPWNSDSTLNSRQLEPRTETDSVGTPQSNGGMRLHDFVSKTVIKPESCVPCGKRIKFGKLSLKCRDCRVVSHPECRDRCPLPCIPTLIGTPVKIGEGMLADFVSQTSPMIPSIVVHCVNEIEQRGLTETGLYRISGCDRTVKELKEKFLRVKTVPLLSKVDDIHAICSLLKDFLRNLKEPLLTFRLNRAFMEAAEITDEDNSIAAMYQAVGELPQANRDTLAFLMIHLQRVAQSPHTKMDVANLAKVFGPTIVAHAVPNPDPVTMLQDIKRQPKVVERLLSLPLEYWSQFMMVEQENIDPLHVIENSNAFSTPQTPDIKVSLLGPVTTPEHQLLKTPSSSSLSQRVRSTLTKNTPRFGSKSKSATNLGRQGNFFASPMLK

Transitional endoplasmic reticulum ATPase (Homo sapiens, UniProt P55072), sequence (P55072 whole entry): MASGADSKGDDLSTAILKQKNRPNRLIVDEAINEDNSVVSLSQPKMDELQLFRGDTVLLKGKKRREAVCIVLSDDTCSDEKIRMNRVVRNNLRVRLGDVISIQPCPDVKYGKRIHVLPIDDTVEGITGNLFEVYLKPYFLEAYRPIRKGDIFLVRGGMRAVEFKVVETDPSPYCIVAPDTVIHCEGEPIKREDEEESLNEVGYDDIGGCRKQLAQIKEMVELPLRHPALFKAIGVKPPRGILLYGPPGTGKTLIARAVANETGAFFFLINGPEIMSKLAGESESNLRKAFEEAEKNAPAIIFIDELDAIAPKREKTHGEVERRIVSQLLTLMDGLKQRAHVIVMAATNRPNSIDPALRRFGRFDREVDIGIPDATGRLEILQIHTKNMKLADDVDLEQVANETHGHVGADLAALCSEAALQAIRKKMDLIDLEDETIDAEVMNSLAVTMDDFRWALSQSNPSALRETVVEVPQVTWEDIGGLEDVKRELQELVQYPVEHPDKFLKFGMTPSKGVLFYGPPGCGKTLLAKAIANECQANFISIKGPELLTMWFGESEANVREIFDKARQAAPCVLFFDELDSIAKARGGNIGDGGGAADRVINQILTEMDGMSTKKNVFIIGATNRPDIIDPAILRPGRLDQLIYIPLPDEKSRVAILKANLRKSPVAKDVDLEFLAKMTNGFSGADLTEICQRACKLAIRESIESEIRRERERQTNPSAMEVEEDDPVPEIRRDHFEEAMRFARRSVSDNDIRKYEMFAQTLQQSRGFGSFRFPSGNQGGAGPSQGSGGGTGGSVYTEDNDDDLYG
Glyceraldehyde-3-phosphate dehydrogenase, sequence (P04406 whole entry): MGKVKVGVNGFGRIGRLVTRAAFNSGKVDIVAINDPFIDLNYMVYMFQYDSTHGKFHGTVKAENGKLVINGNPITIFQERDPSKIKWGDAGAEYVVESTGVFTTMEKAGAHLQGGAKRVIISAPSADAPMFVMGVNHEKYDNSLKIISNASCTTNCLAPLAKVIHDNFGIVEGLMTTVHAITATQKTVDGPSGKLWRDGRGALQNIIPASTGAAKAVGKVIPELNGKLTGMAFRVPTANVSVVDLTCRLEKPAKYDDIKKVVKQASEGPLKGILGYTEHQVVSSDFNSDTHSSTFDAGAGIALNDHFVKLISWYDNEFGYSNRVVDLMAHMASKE
Melanin-concentrating hormone receptor 1, sequence (Q99705 whole entry): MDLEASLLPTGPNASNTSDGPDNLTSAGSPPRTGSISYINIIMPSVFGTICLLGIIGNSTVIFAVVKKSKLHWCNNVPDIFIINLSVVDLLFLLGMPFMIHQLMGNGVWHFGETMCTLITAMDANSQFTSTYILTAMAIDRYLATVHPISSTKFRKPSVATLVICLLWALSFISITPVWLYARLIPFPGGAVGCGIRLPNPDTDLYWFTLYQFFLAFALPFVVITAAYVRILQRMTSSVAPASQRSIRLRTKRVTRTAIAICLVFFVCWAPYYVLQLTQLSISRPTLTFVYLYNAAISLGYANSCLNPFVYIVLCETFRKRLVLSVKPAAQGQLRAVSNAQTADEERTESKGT
Heat shock 70 kDa protein 1A, sequence (P0DMV8 whole entry): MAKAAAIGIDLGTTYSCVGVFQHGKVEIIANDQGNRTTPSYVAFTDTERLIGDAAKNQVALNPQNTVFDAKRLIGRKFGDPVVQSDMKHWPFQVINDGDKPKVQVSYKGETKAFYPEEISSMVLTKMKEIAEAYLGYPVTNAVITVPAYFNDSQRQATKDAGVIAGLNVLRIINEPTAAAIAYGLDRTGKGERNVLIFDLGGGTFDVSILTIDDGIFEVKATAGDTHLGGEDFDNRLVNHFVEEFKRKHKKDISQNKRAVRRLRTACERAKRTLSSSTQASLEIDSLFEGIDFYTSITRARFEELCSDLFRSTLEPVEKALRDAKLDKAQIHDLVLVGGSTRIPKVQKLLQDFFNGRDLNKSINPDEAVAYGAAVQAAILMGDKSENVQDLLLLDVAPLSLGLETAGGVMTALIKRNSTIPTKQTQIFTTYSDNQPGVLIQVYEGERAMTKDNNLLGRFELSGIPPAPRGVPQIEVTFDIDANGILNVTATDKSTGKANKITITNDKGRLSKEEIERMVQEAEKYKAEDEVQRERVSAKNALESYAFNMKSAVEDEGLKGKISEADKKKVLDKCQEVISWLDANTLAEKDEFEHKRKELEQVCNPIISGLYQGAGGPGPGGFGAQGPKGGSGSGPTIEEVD
Cytochrome P450 2D6, sequence (P10635 whole entry): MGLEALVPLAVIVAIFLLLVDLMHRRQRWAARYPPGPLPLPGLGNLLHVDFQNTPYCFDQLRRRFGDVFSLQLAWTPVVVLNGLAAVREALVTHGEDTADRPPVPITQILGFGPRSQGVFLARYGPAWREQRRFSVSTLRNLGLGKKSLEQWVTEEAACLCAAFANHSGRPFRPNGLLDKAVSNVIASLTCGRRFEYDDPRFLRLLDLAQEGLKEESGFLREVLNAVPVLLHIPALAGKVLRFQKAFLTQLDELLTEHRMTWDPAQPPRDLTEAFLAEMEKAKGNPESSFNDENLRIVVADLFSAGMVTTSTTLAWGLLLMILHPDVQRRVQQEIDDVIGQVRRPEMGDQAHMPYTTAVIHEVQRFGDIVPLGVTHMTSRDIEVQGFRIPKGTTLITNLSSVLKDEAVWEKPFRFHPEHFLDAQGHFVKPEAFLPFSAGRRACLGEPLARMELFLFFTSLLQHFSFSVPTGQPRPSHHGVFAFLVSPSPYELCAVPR
Heat shock cognate 71 kDa protein, sequence (P11142 whole entry): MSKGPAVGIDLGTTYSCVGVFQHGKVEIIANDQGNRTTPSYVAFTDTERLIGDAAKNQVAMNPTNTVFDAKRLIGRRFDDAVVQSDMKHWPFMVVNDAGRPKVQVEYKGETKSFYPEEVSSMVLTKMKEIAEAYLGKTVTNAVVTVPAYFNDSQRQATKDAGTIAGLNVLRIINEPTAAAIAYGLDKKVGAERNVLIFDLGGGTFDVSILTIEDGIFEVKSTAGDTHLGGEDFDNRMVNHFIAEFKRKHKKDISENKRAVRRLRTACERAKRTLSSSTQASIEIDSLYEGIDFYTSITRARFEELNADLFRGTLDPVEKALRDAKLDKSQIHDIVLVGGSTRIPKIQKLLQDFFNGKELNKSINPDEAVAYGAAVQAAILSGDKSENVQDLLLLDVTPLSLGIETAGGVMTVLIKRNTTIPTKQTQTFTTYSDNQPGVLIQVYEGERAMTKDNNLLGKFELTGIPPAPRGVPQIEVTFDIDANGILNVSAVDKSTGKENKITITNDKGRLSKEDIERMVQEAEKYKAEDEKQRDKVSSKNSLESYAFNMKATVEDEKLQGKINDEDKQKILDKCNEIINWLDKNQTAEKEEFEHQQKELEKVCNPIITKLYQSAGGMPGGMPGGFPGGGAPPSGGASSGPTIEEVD
Transitional endoplasmic reticulum ATPase (Homo sapiens, UniProt P55072, C522A), sequence (P55072 2-806 C522A limits assumed): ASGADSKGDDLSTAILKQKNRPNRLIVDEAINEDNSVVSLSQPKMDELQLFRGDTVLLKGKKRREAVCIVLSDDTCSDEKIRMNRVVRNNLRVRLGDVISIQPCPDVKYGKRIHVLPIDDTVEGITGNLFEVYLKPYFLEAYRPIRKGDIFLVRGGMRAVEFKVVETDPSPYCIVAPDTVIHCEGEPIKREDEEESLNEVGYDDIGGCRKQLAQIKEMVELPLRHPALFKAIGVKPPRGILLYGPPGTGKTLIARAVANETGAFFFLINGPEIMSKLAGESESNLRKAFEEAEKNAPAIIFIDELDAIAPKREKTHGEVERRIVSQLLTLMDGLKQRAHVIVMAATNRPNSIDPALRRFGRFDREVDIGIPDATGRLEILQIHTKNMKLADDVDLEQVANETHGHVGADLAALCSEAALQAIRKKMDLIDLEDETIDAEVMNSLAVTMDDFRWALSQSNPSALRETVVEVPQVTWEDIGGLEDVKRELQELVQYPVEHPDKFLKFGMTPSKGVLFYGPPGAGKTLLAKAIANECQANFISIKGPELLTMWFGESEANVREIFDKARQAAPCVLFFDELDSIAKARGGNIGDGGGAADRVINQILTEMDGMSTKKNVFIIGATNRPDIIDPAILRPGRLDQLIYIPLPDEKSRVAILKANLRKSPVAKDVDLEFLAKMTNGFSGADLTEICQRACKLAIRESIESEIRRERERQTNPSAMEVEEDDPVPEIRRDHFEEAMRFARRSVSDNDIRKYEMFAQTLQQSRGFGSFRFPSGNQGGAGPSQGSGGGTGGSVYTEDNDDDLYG

## COc1ccc2ccccc2c1/C=N/NC(=O)c1sc(N)c(C#N)c1C
[1]
  IC50: > 50 µM (not active)
[2]
  IC50: 2.58 µM (active)

## COC(=O)[C@@]1(Cc2ccc(F)cc2)[C@H]2c3cc(C(=O)N(C)C)n(Cc4ccccc4)c3C[C@H]2CN1C(=O)c1ccccc1
[3]
  IC50: 11.1 µM (not active)
Cytochrome P450 2D6
  AC50: 20 µM (inconclusive)

## CCOc1ccc(/C=N/NC(=O)c2ccccc2O)cc1CN1CC2CC(C1)c1cccc(=O)n1C2 (configuration not stated)
[4]
  CC50: 23 µM (active)

## O=C(O)C1Nc2cc(Cl)cc(Cl)c2C2C=CCC12 (configuration not stated)
[5]
  IC50: > 100 µM (not active)
[6]
  IC50: 62.7 µM (active)
[7]
  IC50: 53 µM (active)
[8]
  IC50: 18.1 µM (active)
[9]
  IC50: 61.6 µM (active)
[10]
  IC50: > 100 µM (inactive)

## N#Cc1c(NC(=O)CN2C(=O)c3ccccc3C2=O)oc(-c2ccccc2)c1-c1ccccc1
Staphylococcus aureus
  IC50: 1.99 µM (active)

## Cc1c(N2C(=O)/C(=C\c3ccc(N(C)C)cc3)N(C)C2=S)c(=O)n(-c2ccccc2)n1C
[11]
  IC50: 37.9 µM (not active)
Insulin-degrading enzyme
  IC50: 13.9 µM (not active)
[12]
  EC50: > 100 µM (active)
Protein skinhead-1
  IC50: 57.2 µM (inactive)
[13]
  IC50: 74.4 µM (active)
